# Patent publication US6521632B2, “Method for the treatment or prevention of a disease mediated by the alpha-2B-adrenoceptor” (Oy Juvantia Pharma LTD, priority 2000, dated 2003)
# Key:
# human α2B-adrenoceptor [1] = target: T1, human α2B-adrenoceptor (Homo sapiens, UniProt P18089); experiment: Competition binding with 3H-rauwolscine, human alpha-2B; set-up: expressed in transfected cells; host or cells: Shionogi S115 cells (membranes); details: Mean ± SEM, n = 3 unless indicated, membranes of Shionogi S115 cells, read-out: Binding affinity Ki alpha-2B
# T1 sequence (P18089 1-450): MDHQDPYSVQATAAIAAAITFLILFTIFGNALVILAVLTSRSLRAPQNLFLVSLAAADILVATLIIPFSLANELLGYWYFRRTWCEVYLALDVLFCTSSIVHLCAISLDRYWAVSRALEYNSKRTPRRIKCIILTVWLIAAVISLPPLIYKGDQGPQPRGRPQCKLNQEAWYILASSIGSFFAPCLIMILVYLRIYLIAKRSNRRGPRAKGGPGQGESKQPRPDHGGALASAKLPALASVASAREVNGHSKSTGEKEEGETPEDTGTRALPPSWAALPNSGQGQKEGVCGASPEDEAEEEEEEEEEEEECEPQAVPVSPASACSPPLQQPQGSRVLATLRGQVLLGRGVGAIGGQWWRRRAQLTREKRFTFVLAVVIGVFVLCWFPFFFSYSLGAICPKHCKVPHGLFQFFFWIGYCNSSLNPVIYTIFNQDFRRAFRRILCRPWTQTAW
# Experimental: (§1) Binding Affinity Human Alpha-2-adrenoceptor
# (§2) The affinity of test compounds for the three human α2-adrenoceptor subtypes (α2A, α2B and α2C) was determined in competition binding assays with ^3H-rauwolscine. The biological material for these experiments consisted of membranes from Shionogi S115 cells stably transfected with either of the three human α2 subtypes (Marjarnaki et al. 1992). Membrane (5-10 μg of total protein per sample) and 1 nM-2 nM ^3H-rauwolscine (specific activity 78 Ci/mrnmol) were incubated in 50 mM KH2PO4, pH 7.5 with 6 concentrations of the compounds. Each concentration was run in duplicate. Nonspecific binding was defined by 100 μM oxymetazoline and corresponded to 5-15% of total binding. After 30 mim at room temperature, incubations were terminated by rapid vacuum filtration through GF/B glass fiber filter and three 5 ml washes with icecold incubation buffer. The filters were then dried, impregnated with scintillate and their radioactivity was measured by scintillation counting. The analysis of the experiments was carried out by nonlineair least square curve fitting. Experimentally determined IC50 values were converted to Ki's by making use of the Cheng-Prusoff equation (Cheng and Prusoff, 1973). Experiments were repeated a minimum of three times.
# human α2A-adrenoceptor [2] = target: T2, human α2A-adrenoceptor (Homo sapiens, UniProt P08913); experiment: Inhibition of epinephrine-stimulated 35S-GTPγS binding, human alpha-2A; assay type: biochemical; details: Mean ± SEM, n minimum three; CHO cell membranes; epinephrine 5 μM; incomplete dose-response curves, KB numbers are minimum estimates; read-out: Antagonist effect KB alpha-2A
# T2 sequence (P08913 1-465): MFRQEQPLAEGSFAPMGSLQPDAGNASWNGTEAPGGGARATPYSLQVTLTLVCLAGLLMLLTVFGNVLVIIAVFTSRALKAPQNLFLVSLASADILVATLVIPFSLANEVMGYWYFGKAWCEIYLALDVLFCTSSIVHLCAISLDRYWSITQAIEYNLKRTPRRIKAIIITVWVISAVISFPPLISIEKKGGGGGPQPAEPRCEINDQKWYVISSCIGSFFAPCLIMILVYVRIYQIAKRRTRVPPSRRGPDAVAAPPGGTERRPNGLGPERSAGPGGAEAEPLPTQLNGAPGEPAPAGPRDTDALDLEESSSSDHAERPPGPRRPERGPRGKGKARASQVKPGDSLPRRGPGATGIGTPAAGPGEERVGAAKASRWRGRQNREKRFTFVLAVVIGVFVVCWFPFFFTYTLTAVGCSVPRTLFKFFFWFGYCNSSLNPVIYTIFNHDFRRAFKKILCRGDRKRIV
# Experimental: (§3) Antagonist Activity on Human a2-adrenoceptor Subtypes
# (§4) Membranes (2-6 μg of protein per samnple) and 12 concentrations of test compound were preincubated for 30 min with a fixed concentration fo epinephrine (5 μM for α2A, 15 μM for α2B, 5 μM for α2C) in 50 mM Tris, 5 mM MgCl2, 150 mM NaCl, 1 mM DTT,
# (§5) 1 mM EDTA, 10 μuM GDP, 30 μM ascoerbic acid, pH 7.4 at room temperature. Binding of radiolabel was started by the addition of trace amounts of ^35S-GTPγS (0.08 nM-0.15 nM, specific activity 1250 Ci/mmol) to the incubation mixture. After an additional 60 min at room temperature, the incubation was terminated by rapid vacuum filtration through glass fiber filter. Filters were washed three times with 5 ml icecold wash buffer (20 mM Tris, 5 mM MgCl2, 1 mM EDTA pH 7.4 at room temperature), dried and counted for radioactivity in a scintiallation counter. Analysis of experiments was carried out by nonlinear least square fitting. Experiments were repeated at least three times.
# human α2B-adrenoceptor [3] = target: T1, human α2B-adrenoceptor; experiment: Inhibition of epinephrine-stimulated 35S-GTPγS binding, human alpha-2B; assay type: biochemical; details: Mean ± SEM, n minimum three; CHO cell membranes; epinephrine 15 μM; read-out: Antagonist effect KB alpha-2B
# Experimental: as §3, §4, §5
# human α2A-adrenoceptor [4] = target: T2, human α2A-adrenoceptor; experiment: Competition binding with 3H-rauwolscine, human alpha-2A; set-up: expressed in transfected cells; host or cells: Shionogi S115 cells (membranes); details: Mean ± SEM, n = 3 unless indicated, membranes of Shionogi S115 cells, read-out: Binding affinity Ki alpha-2A
# Experimental: as §1, §2
# human α2C-adrenoceptor [5] = target: T3, human α2C-adrenoceptor (Homo sapiens, UniProt P18825); experiment: Competition binding with 3H-rauwolscine, human alpha-2C; set-up: expressed in transfected cells; host or cells: Shionogi S115 cells (membranes); details: Mean ± SEM, n = 3 unless indicated, membranes of Shionogi S115 cells, read-out: Binding affinity Ki alpha-2C
# T3 sequence (P18825 1-462): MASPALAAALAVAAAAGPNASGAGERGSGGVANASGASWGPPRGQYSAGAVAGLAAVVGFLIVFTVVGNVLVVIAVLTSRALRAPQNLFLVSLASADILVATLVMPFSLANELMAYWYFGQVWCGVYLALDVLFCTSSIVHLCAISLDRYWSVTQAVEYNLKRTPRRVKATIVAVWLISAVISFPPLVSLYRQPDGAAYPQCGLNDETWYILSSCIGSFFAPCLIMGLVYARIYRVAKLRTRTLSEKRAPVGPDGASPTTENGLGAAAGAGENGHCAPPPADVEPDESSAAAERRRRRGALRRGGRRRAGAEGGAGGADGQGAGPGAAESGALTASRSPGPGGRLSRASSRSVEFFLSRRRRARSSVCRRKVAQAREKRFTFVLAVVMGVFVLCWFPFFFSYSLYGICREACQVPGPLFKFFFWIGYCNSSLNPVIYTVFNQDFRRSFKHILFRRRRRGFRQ
# Experimental: as §1, §2
# human α2C-adrenoceptor [6] = target: T3, human α2C-adrenoceptor; experiment: Inhibition of epinephrine-stimulated 35S-GTPγS binding, human alpha-2C; assay type: biochemical; details: Mean ± SEM, n minimum three; CHO cell membranes; epinephrine 5 μM; incomplete dose-response curves, KB numbers are minimum estimates; read-out: Antagonist effect KB alpha-2C
# Experimental: as §3, §4, §5
# [7] = target: rat neocortical α1-adrenoceptors; experiment: Competition binding with 3H-prazosin, rat neocortex membranes; details: concentrations of up to 30 μM
# Experimental: Binding Affinity Rat Cortical α1-adrenoceptor
# The affinity for rat neocortical α1-adrenoceptors was determined in competition binding assays with ^3H-prazosin. The biological material for these assays consisted of membranes from rat neocortex. Membrane suspensions (100-200 μg of total protein per sample) and 0.2 nM-0.25 nM of ^3H-prazosin (specific activity 74 Ci/mmol) were incubated with 6 concentrations of compounds in a total volume of 0.25 ml (50 mM Tris pH 7.7 at 25° C). Each concentration was run in duplicate. Nonspecific binding was defined by 10 μM phentolamine methanesulfonate and corresponded to 25-30% of total binding. After 30 min at room temperature, incubations was terminated by rapid filtration through GF/B glass-fiber filter mats and three washes with ice-cold 10 mM Tris (pH 7.7 at 4° C.). After drying, a solid scintillate was melted onto the filter mats, and their radioactivity was measured by scintillation counting.
Ki (human α2B-adrenoceptor [1]) [nM],Kb (human α2A-adrenoceptor [2]) [nM],Kb (human α2B-adrenoceptor [3]) [nM],Ki (human α2A-adrenoceptor [4]) [µM],Ki (human α2C-adrenoceptor [5]) [µM],Kb (human α2C-adrenoceptor [6]) [nM],"IC50 ([7]; read-out: IC50, displacement of 3H-prazosin) [µM]","Ki ([7]; read-out: Ki, displacement of 3H-prazosin) [µM]",SMILES
30 ± 4,2400 ± 700,73 ± 23,4.1 ± 0.2,> 4.7,2400 ± 900,> 30,> 30,CCn1c(CNc2ccc(S(=O)(=O)Nc3nc(C)cc(C)n3)cc2)nc2ccccc21 [A]
215 ± 60,> 10000,250 ± 80,> 30,> 30,> 10000,,,Cc1cc(C)nc(NS(=O)(=O)c2ccc(NCc3nc4ccccc4n3C)cc2)n1 [B]
1860,,,> 30,> 30,,,,CCOc1ccc(C(=O)Nc2ccc(S(=O)(=O)Nc3nc(C)cc(C)n3)cc2)cc1 [C]
530 ± 90,,,> 30,> 30,,,,Cc1cc(C)nc(NS(=O)(=O)c2ccc(NC(=O)/C=C/c3ccc(F)cc3)cc2)n1 [D]
2900 ± 300,,,> 100,> 100,,,,Cc1cc(C)nc(NS(=O)(=O)c2ccc(NC(=O)COc3ccccc3)cc2)n1 [E]
